Some test systems named below: MDA-MB-435; M14; Hs-578T; HT-29; SK-MEL-5; MDA-MB-231; HCC 2998; U-251; HOP-92; PC-3; ACHN; K562; SK-OV-3; UO-31; OVCAR-8; SK-MEL-2; MCF7; OVCAR-5; KM12; SW-620.
Common to all, as to experiment: NCI-60 cell line screen, 48 h

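Test compounds were applied to cells in 96-well plates for 48 hours at 5 doses. GI50 marks 50% less growth.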 Calls of active or inactive are those of the source. Cut-off read from the data, not from the text of the source: active = GI50 up to about 1.1 µM and inactive = higher. Some results are limits rather than exact numbers.

For the molecule `COc1cc(C2c3cc4c(cc3OC(Nc3ccc(C(=O)O)cc3)C2C)OCO4)cc(OC)c1OC` (stereo not given), the GI50 in the test on MDA-MB-435 is 0.0317 µM (active); with M14, 0.301 µM (active); in the test on Hs-578T, 1.39 µM (inactive); in the test on HT-29 it was 0.329 µM (active); with SK-MEL-5, 0.0735 µM (active); with MDA-MB-231 it was 0.189 µM (active). The GI50 was 0.295 µM (active) in the test on HCC 2998; 0.346 µM (active) in the test with U-251; 4.13 µM (inactive) in the test on HOP-92; 0.253 µM (active) in the test with PC-3; 1.38 µM (inactive) in the test on ACHN; 0.3 µM (active) in the test on K562. Moreover, the GI50 is 0.362 µM (active) in the test on SK-OV-3; 0.426 µM (active) in the test on UO-31; 0.422 µM (active) with OVCAR-8; 0.579 µM (active) in the test with SK-MEL-2; 0.232 µM (active) in the test on MCF7; 0.841 µM (active) with OVCAR-5. In addition, the GI50 in the test with KM12 is 0.241 µM (active); in the test on SW-620, 0.35 µM (active).

Regarding `CC(C)c1ccc(C2NC(S)=NC3=C2c2ccccc2C3=O)cc1` (stereo not given), the GI50 in the test on MDA-MB-435 is 6.97 µM (inactive); in the test on M14 it was 28 µM (inactive); in the test on Hs-578T it was 14.8 µM (inactive); in the test with HT-29, 25.5 µM (inactive); with SK-MEL-5 it was 20.1 µM (inactive); in the test on MDA-MB-231, 16.9 µM (inactive). For the same molecule, the GI50 is > 36.6 µM (inactive) with HCC 2998; 26.7 µM (inactive) in the test on U-251; 22.3 µM (inactive) in the test with HOP-92; 11.3 µM (inactive) in the test on PC-3; 27.7 µM (inactive) in the test with ACHN; 22.6 µM (inactive) in the test with K562. The GI50 with SK-OV-3 was 25.4 µM (inactive); in the test with UO-31 it was 21.5 µM (inactive); with OVCAR-8, 32.1 µM (inactive); in the test with SK-MEL-2, 17.4 µM (inactive); in the test with MCF7, 10.2 µM (inactive); in the test with OVCAR-5, 34 µM (inactive). The GI50 is 27.4 µM (inactive) in the test with KM12 and 23.4 µM (inactive) in the test with SW-620.

On to `CCCCCCCCCCCCCCCC(=O)OC1C(O)C(O)C(O)C(O)C12CO2` (stereo not given), for which the GI50 was 48.5 µM (inactive) with MDA-MB-435; > 100 µM (inactive) in the test with M14; 31.4 µM (inactive) with Hs-578T; 45.4 µM (inactive) in the test on HT-29; > 100 µM (inactive) with SK-MEL-5; 34.4 µM (inactive) with MDA-MB-231. Also, the GI50 with HCC 2998 was 71.8 µM (inactive); in the test on U-251, 17.5 µM (inactive); with HOP-92 it was 14.3 µM (inactive); in the test with PC-3, 20.9 µM (inactive); in the test on ACHN, 24.4 µM (inactive); in the test on K562, 24.7 µM (inactive). In addition, the GI50 with SK-OV-3 is 51.4 µM (inactive); in the test on UO-31, 68.4 µM (inactive); with OVCAR-8, 22.8 µM (inactive); in the test on SK-MEL-2, 37.3 µM (inactive); in the test on MCF7, 16.2 µM (inactive); in the test on OVCAR-5, 56 µM (inactive). Moreover, the GI50 is 36.2 µM (inactive) in the test on KM12 and 14.7 µM (inactive) with SW-620.

`COc1ccc(C(Nc2ccccn2)c2cc(C(C)(C)C)cc(C(C)(C)C)c2O)cc1` (stereo not given): the GI50 with MDA-MB-435 is 17.4 µM (inactive); in the test on M14, 16.4 µM (inactive); in the test with Hs-578T, 6.07 µM (inactive); in the test on HT-29, 22 µM (inactive); in the test on SK-MEL-5 it was 16.3 µM (inactive); with MDA-MB-231, 33.4 µM (inactive). In addition, the GI50 in the test on HCC 2998 is 12.3 µM (inactive); in the test on U-251 it was 19.8 µM (inactive); with HOP-92, 31.6 µM (inactive); with PC-3 it was 21.8 µM (inactive); with ACHN it was 30.8 µM (inactive); in the test on K562, 55 µM (inactive). For the same molecule, the GI50 was 19.5 µM (inactive) in the test on SK-OV-3; 29.9 µM (inactive) in the test with UO-31; 43.4 µM (inactive) in the test on OVCAR-8; 18.1 µM (inactive) in the test on SK-MEL-2; 16.2 µM (inactive) with MCF7; 42 µM (inactive) in the test on OVCAR-5. Moreover, the GI50 in the test on KM12 was 14.9 µM (inactive); with SW-620, 19.2 µM (inactive).

On to `NS(=O)(=O)c1ccc(NC(=S)NC(=O)Nc2ccc(Cl)c(Cl)c2)cc1`, for which the GI50 is 14.4 µM (inactive) in the test with MDA-MB-435; 7.33 µM (inactive) with M14; 25.1 µM (inactive) with Hs-578T; 11.5 µM (inactive) with HT-29; 16.1 µM (inactive) with SK-MEL-5; 1.06 µM (active) in the test on MDA-MB-231. Besides, the GI50 in the test with HCC 2998 was 14.6 µM (inactive); in the test on U-251, 14.9 µM (inactive); in the test with HOP-92 it was 26.5 µM (inactive); with PC-3, 12.9 µM (inactive); in the test on ACHN, 11.5 µM (inactive); in the test on K562, 4.55 µM (inactive). Also, the GI50 in the test with SK-OV-3 was 18.5 µM (inactive); with UO-31 it was 4.56 µM (inactive); in the test on OVCAR-8, 18.4 µM (inactive); with SK-MEL-2 it was 15 µM (inactive); in the test with MCF7 it was 15 µM (inactive); with OVCAR-5 it was 12.8 µM (inactive). Also, the GI50 with KM12 was 9.29 µM (inactive); in the test with SW-620, 16.5 µM (inactive).

As for `COc1ccc(OC)c(C2CCc3cnc4nc(N)nc(N)c4c3C2)c1` (stereo not given), the GI50 in the test with MDA-MB-435 was 87.1 µM (inactive); in the test on M14, 92.3 µM (inactive); in the test with Hs-578T it was > 100 µM (inactive); in the test on HT-29, 70.1 µM (inactive); in the test with SK-MEL-5, > 100 µM (inactive); in the test on MDA-MB-231 it was > 100 µM (inactive). Moreover, the GI50 in the test on HCC 2998 is > 100 µM (inactive); in the test on U-251, 48.8 µM (inactive); in the test on HOP-92, > 100 µM (inactive); in the test on PC-3 it was > 100 µM (inactive); with ACHN, > 100 µM (inactive); in the test with K562, 46.9 µM (inactive). In addition, the GI50 in the test with SK-OV-3 is > 100 µM (inactive); in the test on UO-31 it was 37.4 µM (inactive); with OVCAR-8, 91.2 µM (inactive); with SK-MEL-2 it was > 100 µM (inactive); in the test on MCF7, > 100 µM (inactive); in the test on OVCAR-5, > 100 µM (inactive). Besides, the GI50 in the test with KM12 and in the test on SW-620 was > 100 µM (inactive) each time.

Turning to `NC1=NCC(CN2CCCC2)O1` (stereo not given), the GI50 in the test on MDA-MB-435, in the test on M14, with Hs-578T, with HT-29, in the test with SK-MEL-5 and with MDA-MB-231 was > 100 µM (inactive) in each case. In addition, the GI50 in the test on HCC 2998, in the test on U-251, in the test on HOP-92, in the test on PC-3, in the test on ACHN and in the test with K562 was > 100 µM (inactive) throughout. The GI50 in the test with SK-OV-3, in the test on UO-31, with OVCAR-8, in the test on SK-MEL-2, in the test with MCF7 and with OVCAR-5 was > 100 µM (inactive) each time. In addition, the GI50 with KM12 and in the test on SW-620 was > 100 µM (inactive) in each case.

On to `CC(C)NC(=O)OCc1c(COC(=O)NC(C)C)n(C)c2c1ccc1ccccc12`, for which the GI50 in the test with MDA-MB-435 is 1.52 µM (inactive); in the test with M14, 1.63 µM (inactive); with Hs-578T it was 0.971 µM (active); in the test on HT-29 it was 3.34 µM (inactive); with SK-MEL-5 it was 2.34 µM (inactive); in the test with MDA-MB-231, 1.57 µM (inactive). Besides, the GI50 is 2.88 µM (inactive) in the test with HCC 2998; 1.63 µM (inactive) in the test with U-251; 1.16 µM (inactive) in the test on HOP-92; 4.43 µM (inactive) in the test on PC-3; 1.48 µM (inactive) with ACHN; 0.171 µM (active) in the test on K562. In addition, the GI50 in the test on SK-OV-3 is 9.82 µM (inactive); in the test with UO-31 it was 1.9 µM (inactive); in the test on OVCAR-8, 1.8 µM (inactive); with SK-MEL-2 it was 1.78 µM (inactive); in the test with MCF7 it was 0.57 µM (active); with OVCAR-5 it was 2.97 µM (inactive). For the same molecule, the GI50 with KM12 is 4.51 µM (inactive); in the test on SW-620, 1.37 µM (inactive).

With `Cn1c(=O)c2sc3c4sc5c(=O)n(C)c6ccccc6c5c4sc3c2c2ccccc21`, the GI50 in the test with MDA-MB-435 is > 100 µM (inactive); in the test on M14, > 100 µM (inactive); in the test with Hs-578T it was 56.5 µM (inactive); with HT-29, > 100 µM (inactive); in the test on SK-MEL-5 it was > 100 µM (inactive); in the test with MDA-MB-231, 31.5 µM (inactive). Besides, the GI50 in the test with HCC 2998 was > 100 µM (inactive); with U-251, 47.5 µM (inactive); in the test on HOP-92, 90.8 µM (inactive); in the test on PC-3, > 100 µM (inactive); in the test on ACHN it was 48.1 µM (inactive); in the test with K562 it was > 100 µM (inactive). Moreover, the GI50 in the test with SK-OV-3, in the test with UO-31, in the test with OVCAR-8, in the test on SK-MEL-2, in the test with MCF7 and in the test with OVCAR-5 was > 100 µM (inactive) each time. For the same molecule, the GI50 in the test on KM12 and with SW-620 was > 100 µM (inactive) each time.

Take `COc1ccc2c(c1[N+](=O)[O-])CC[C@@H]1[C@@H]2CC[C@]2(C)C(=O)CC[C@@H]12`: the GI50 with MDA-MB-435 is > 25 µM (inactive); in the test with M14, > 25 µM (inactive); with Hs-578T, 17.1 µM (inactive); in the test with HT-29, > 25 µM (inactive); in the test with SK-MEL-5, > 25 µM (inactive); with MDA-MB-231 it was > 25 µM (inactive). For the same molecule, the GI50 is > 1000 µM (inactive) in the test with HCC 2998; > 25 µM (inactive) with U-251; 21.4 µM (inactive) in the test with HOP-92; 22 µM (inactive) in the test with PC-3; > 25 µM (inactive) in the test on ACHN; 24.9 µM (inactive) in the test on K562. Further, the GI50 is 7.41 µM (inactive) in the test with SK-OV-3; > 25 µM (inactive) in the test on UO-31; > 25 µM (inactive) in the test with OVCAR-8; 14.8 µM (inactive) with SK-MEL-2; > 25 µM (inactive) in the test with MCF7; > 25 µM (inactive) with OVCAR-5. Moreover, the GI50 in the test on KM12 and in the test on SW-620 was > 25 µM (inactive) each time.

The values are drawn from ChEMBL document CHEMBL1201862, “PubChem BioAssay data set” (2004).
